Among the data in ChEMBL document CHEMBL5055672, “Design, Synthesis, Biological Evaluation, and Computational Studies of Novel Fluorinated Candidates as PI3K Inhibitors: Targeting Fluorophilic Binding Sites” (J Med Chem, 2021) are inhibition of growth, IC50 and selectivity ratio values, retold here.

Structures are written as SMILES.

Data set [1] deals with MCF7. Nature of the data set: Cytotoxicity against human MCF7 cells assessed as growth inhibition at 10 uM after 48 hrs by sulforhodamine B assay. The class given is functional. The conditions noted are these: read-out: GI.
Data set [2] deals with MCF-10A. Nature of the data set: Cytotoxicity against human MCF10A cells assessed as inhibition of cell growth incubated for 48 hrs by MTT assay. It counts as cell-based. Background: Tetrazolium assays rely on reduction of a dye to a coloured formazan, in cell work by metabolically active cells.
The subject of data set [3] is K562. The data set is described as follows: Cytotoxicity against human K562 cells assessed as growth inhibition at 10 uM after 48 hrs by sulforhodamine B assay. The class given is functional. The conditions noted are these: read-out: GI. Background: The SRB assay estimates cell density from bound dye.
Data set [4] has as its system SR. Nature of the data set: Cytotoxicity against human SR cells assessed as growth inhibition at 10 uM after 48 hrs by sulforhodamine B assay. The conditions noted are these: read-out: GI. It counts as functional.
Data set [5] concerns U-251. Nature of the data set: Cytotoxicity against human U-251 cells assessed as growth inhibition at 10 uM after 48 hrs by sulforhodamine B assay. The class given is functional. The conditions noted are these: read-out: GI.
For data set [6], the system named is MOLT-4. The data set is described as follows: Cytotoxicity against human MOLT-4 cells assessed as growth inhibition at 10 uM after 48 hrs by sulforhodamine B assay. It counts as functional. The conditions noted are these: read-out: GI.
Data set [7] concerns SF-539. Nature of the data set: Cytotoxicity against human SF-539 cells assessed as growth inhibition at 10 uM after 48 hrs by sulforhodamine B assay. The conditions noted are these: read-out: GI. The class given is functional.
The test system of data set [8] is CCRF-CEM. Nature of the data set: Cytotoxicity against human CCRF-CEM cells assessed as growth inhibition at 10 uM after 48 hrs by sulforhodamine B assay. It counts as functional. The conditions noted are these: read-out: GI.
Data set [9] deals with HOP-62. The data set is described as follows: Cytotoxicity against human HOP-62 cells assessed as growth inhibition at 10 uM after 48 hrs by sulforhodamine B assay. The class given is functional. The conditions noted are these: read-out: GI.
Data set [10] deals with MDA-MB-231. Nature of the data set: Cytotoxicity against human MDA-MB-231 cells assessed as growth inhibition at 10 uM after 48 hrs by sulforhodamine B assay. It counts as functional. The conditions noted are these: read-out: GI.
The nature of data set [11]: Cytotoxicity against human Hs 578T cells assessed as growth inhibition at 10 uM after 48 hrs by sulforhodamine B assay. It counts as functional. The conditions noted are these: read-out: GI.
The subject of data set [12] is UACC-62. Nature of the data set: Cytotoxicity against human UACC-62 cells assessed as growth inhibition at 10 uM after 48 hrs by sulforhodamine B assay. The class given is functional. The conditions noted are these: read-out: GI.
In data set [13] the test system is SNB-19. The data set is described as follows: Cytotoxicity against human SNB-19 cells assessed as growth inhibition at 10 uM after 48 hrs by sulforhodamine B assay. The conditions noted are these: read-out: GI. The class given is functional.
The test system of data set [14] is CAKI-1. Nature of the data set: Cytotoxicity against human CAKI-1 cells assessed as growth inhibition at 10 uM after 48 hrs by sulforhodamine B assay. The class given is functional. The conditions noted are these: read-out: GI.
Data set [15] concerns SF-268. Nature of the data set: Cytotoxicity against human SF-268 cells assessed as growth inhibition at 10 uM after 48 hrs by sulforhodamine B assay. It counts as functional. The conditions noted are these: read-out: GI.
The subject of data set [16] is NCI-H522. Nature of the data set: Cytotoxicity against human NCI-H522 cells assessed as growth inhibition at 10 uM after 48 hrs by sulforhodamine B assay. The conditions noted are these: read-out: GI. It counts as functional.
The test system of data set [17] is HL-60(TB). Nature of the data set: Cytotoxicity against human HL-60(TB) cells assessed as growth inhibition at 10 uM after 48 hrs by sulforhodamine B assay. The class given is functional. The conditions noted are these: read-out: GI.
Data set [18] relates to UO-31. The data set is described as follows: Cytotoxicity against human UO-31 cells assessed as growth inhibition at 10 uM after 48 hrs by sulforhodamine B assay. It counts as functional. The conditions noted are these: read-out: GI.
Data set [19] deals with NCI-H226. The data set is described as follows: Cytotoxicity against human NCI-H226 cells assessed as growth inhibition at 10 uM after 48 hrs by sulforhodamine B assay. It counts as functional. The conditions noted are these: read-out: GI.
Data set [20] concerns SN12C. Nature of the data set: Cytotoxicity against human SN12C cells assessed as growth inhibition at 10 uM after 48 hrs by sulforhodamine B assay. The class given is functional. The conditions noted are these: read-out: GI.
In data set [21] the test system is OVCAR-4. Nature of the data set: Cytotoxicity against human OVCAR-4 cells assessed as growth inhibition at 10 uM after 48 hrs by sulforhodamine B assay. The conditions noted are these: read-out: GI. The class given is functional.
In data set [22] the test system is T47D. Nature of the data set: Cytotoxicity against human T47D cells assessed as growth inhibition at 10 uM after 48 hrs by sulforhodamine B assay. It counts as functional. The conditions noted are these: read-out: GI.
Data set [23] deals with T1, Phosphatidylinositol 4,5-bisphosphate 3-kinase catalytic subunit delta isoform (Homo sapiens, UniProt O00329).
T1 sequence (O00329 whole entry): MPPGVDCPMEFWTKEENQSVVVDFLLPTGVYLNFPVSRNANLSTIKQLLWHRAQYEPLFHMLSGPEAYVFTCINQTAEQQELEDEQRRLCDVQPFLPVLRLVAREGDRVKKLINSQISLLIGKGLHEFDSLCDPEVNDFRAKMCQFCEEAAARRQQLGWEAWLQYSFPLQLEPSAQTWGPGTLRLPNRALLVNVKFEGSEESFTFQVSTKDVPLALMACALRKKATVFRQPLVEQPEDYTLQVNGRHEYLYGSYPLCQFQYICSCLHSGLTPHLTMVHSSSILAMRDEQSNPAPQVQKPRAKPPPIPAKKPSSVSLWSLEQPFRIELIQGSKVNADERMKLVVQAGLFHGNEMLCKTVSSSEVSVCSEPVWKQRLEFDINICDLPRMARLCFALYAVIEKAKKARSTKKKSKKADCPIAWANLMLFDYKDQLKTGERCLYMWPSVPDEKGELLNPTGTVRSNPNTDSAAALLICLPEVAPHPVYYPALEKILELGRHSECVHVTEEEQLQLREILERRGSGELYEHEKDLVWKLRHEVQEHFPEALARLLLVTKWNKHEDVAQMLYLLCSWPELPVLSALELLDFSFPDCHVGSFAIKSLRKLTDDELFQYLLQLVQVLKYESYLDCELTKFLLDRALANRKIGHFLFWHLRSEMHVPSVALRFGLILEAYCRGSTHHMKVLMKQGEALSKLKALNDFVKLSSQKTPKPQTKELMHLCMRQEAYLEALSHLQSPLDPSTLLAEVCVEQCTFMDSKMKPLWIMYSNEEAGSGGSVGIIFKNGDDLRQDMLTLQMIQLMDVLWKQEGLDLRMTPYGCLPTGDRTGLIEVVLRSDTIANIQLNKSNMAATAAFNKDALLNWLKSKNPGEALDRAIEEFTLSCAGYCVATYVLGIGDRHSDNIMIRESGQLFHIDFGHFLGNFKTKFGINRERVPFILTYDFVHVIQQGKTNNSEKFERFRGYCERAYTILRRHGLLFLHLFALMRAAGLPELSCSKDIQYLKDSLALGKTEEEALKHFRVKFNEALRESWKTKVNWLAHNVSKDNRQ
The data set is described as follows: Inhibition of PI3Kdelta (unknown origin) using PIP2 as substrate preincubated for 10 mins followed by substrate addition and measured after 1 hr by ELISA.

The test system of data set [24] is EKVX. The data set is described as follows: Cytotoxicity against human EKVX cells assessed as growth inhibition at 10 uM after 48 hrs by sulforhodamine B assay. The class given is functional. The conditions noted are these: read-out: GI.
Data set [25] relates to MCF7. Nature of the data set: Antiproliferative activity against human MCF7 cells assessed as inhibition of cell growth incubated for 48 hrs by MTT assay. The conditions noted are these: MCF7, 48 h. It counts as functional, cell-based.
The nature of data set [26]: Selectivity index, ratio of IC50 for human MCF-10A cells to IC50 for human MCF7 cells. The conditions noted are these: MCF-10A cells versus MCF7 cells, read-out: Ratio IC50. The class given is toxicity.

With `FC(F)(F)COc1ccc(/C=N/N=c2\scc(-c3ccccc3)n2-c2ccccc2)cc1`, in data set [1], the inhibition of growth at 10 µM is 53.4%.

Take `O=S(=O)(Oc1ccc(/C=N/N=c2\scc(-c3ccccc3)n2-c2ccccc2)cc1)C(F)(F)C(F)(F)C(F)(F)C(F)(F)C(F)(F)C(F)(F)C(F)(F)C(F)(F)F`: in data set [1], the inhibition of growth at 10 µM turned out to be 46.1%.

Consider `COc1cccc2c1C(=O)c1c(O)c3c(c(O)c1C2=O)C[C@@](O)(C(=O)CO)C[C@@H]3O[C@H]1C[C@H](N)[C@H](O)[C@H](C)O1` [DOXORUBICIN], for which the IC50 (usually the concentration at which inhibition is half-maximal) in data set [2] was 19 µM.

`COC(=O)/C=C1\S/C(=N\N=C\c2ccc(OS(=O)(=O)C(F)(F)C(F)(F)C(F)(F)C(F)(F)C(F)(F)C(F)(F)F)cc2)N(c2ccccc2)C1=O`: the inhibition of growth at 10 µM in [3] was determined as 39%; in data set [4], 32.7%; in [5], 10.4%; in data set [6], 13.4%; in data set [7], 13.7%; in [8], 22.7%. For the same compound, the inhibition of growth at 10 µM in data set [9] turned out to be 13.1%; in [10], 12.8%; in data set [11], 23.7%; in data set [12], 17.6%; in [13], 26.4%; in [14] it was 28%. Also, the inhibition of growth at 10 µM in data set [15] was 10.4%.

Consider `FC(F)(F)c1ccc(-c2nnc(Nc3ccccc3)s2)cc1`, for which the inhibition of growth at 10 µM was determined as 13.7% in data set [3]; 11.4% in [1]; 24.9% in data set [4]; 11% in data set [16]; 26.2% in data set [17]; 11.7% in data set [14].

Take `O=S(=O)(Oc1ccc(/C=N/N=c2\scc(-c3ccccc3)n2-c2ccccc2)cc1)C(F)(F)C(F)(F)C(F)(F)C(F)(F)C(F)(F)C(F)(F)F`: in [1], the inhibition of growth at 10 µM came out at 43.5%.

`COC(=O)/C=C1\S/C(=N\N=C\c2ccc(OS(=O)(=O)C(F)(F)C(F)(F)C(F)(F)C(F)(F)F)cc2)N(c2ccccc2)C1=O`: the inhibition of growth at 10 µM was 10% in [1] and 21.6% in data set [12].

In the case of `O=S(=O)(Oc1ccc(-c2nnc(Nc3ccccc3)s2)cc1)C(F)(F)C(F)(F)C(F)(F)C(F)(F)F`, the inhibition of growth at 10 µM turned out to be 12.6% in [3]; 19.9% in data set [18]; 12.8% in data set [1]; 15.8% in data set [19]; 10.1% in data set [4]; 14.5% in [20]. In addition, the inhibition of growth at 10 µM came out at 12.4% in [9]; 10.7% in data set [12]; 17.2% in data set [21]; 14.1% in [22]; 22.1% in [14].

As to `O=c1cc(N2CCOCC2)oc2c(-c3ccccc3)cccc12` [LY-294002], it took 14.9 µM to reach half-maximal inhibition in data set [23] (IC50).

On to `FC(F)(F)c1ccc(/C=N/NC(=S)Nc2ccccc2)cc1`, for which the inhibition of growth at 10 µM in [24] was determined as 10.3%.

For the compound `COc1cc([C@@H]2c3cc4c(cc3[C@@H](O[C@@H]3O[C@@H]5CO[C@@H](C)O[C@H]5[C@H](O)[C@H]3O)[C@H]3COC(=O)[C@H]23)OCO4)cc(OC)c1O` [ETOPOSIDE], the values for the IC50 in data set [25] and in data set [2] were 12.6 µM and 84.7 µM, respectively. Also, in data set [26], the selectivity ratio amounted to 3.86.

Take `O=S(=O)(Oc1ccc(-c2nnc(Nc3ccccc3)s2)cc1)C(F)(F)C(F)(F)C(F)(F)C(F)(F)C(F)(F)C(F)(F)F`: the inhibition of growth at 10 µM in [4] is 80.5%; in data set [17], 29.4%; in [10], 13.1%.

Turning to `FC(F)(F)c1ccc(/C=N/N=c2\scc(-c3ccccc3)n2-c2ccccc2)cc1`, the inhibition of growth at 10 µM in data set [1] came to 41.1%.

Regarding `O=S(=O)(Oc1ccc(/C=N/NC(=S)Nc2ccccc2)cc1)C(F)(F)C(F)(F)C(F)(F)C(F)(F)C(F)(F)C(F)(F)C(F)(F)C(F)(F)F`, the inhibition of growth at 10 µM was found to be 13.3% in data set [18] and 10.1% in data set [16].
